Source: article PMC3265293, “Artificial 64-Residue HIV-1 Enhancer-Binding Peptide Is a Potent Inhibitor of Viral Replication in HIV-1-Infected Cells” (Advances in Virology, 2011)
Where no end group is shown, it is not given here.

Legend:
CEM-GFP cells = test: MTT assay of PMA-stimulated CEM-GFP cells; assay type: cell-based, human; conditions: PMA and increasing concentrations of peptide, after 48 h
Experimental: After 48 h, cell growth-inhibitory effects of the peptides and PMA were assessed using the 3-[4,5-dimethylthiazol-2-yl]-2,5-diphenyltetrazolium bromide (MTT) assay.

plasma membrane = tested on: plasma membrane; set-up: method as in earlier work; conditions: ref earlier work; cited from earlier work

## GKTKRPRFGKTKRPRVGQQSIEQLENGKTKRPRFGKTKRPRY [R42]
CEM-GFP cells
  cytotoxicity (MTT assay): not observed
Plasma membrane
  ability to pass the plasma membrane: not able to pass the plasma membrane
